Test results: US20260159520A1, “HETEROBIFUNCTIONAL COMPOUNDS AND METHODS OF TREATING DISEASE” (Halda Therapeutics OpCo, Inc., priority 2022, published 2026)

Columns and labels:
Type in all cases: cell-based
[1] = test system: T-Rex 293 cell line SC3 cells having increased expression of androgen receptor protein; assay: Cellular growth inhibition, T-Rex 293 SC3 cells with doxycycline (increased androgen receptor expression); conditions: with 10 ng/mL doxycycline (increased androgen receptor), 72 hours, CellTiter-Glo 2.0
How it was run: (§1)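 Doxycycline (10 ng/mL) was either included or omitted to toggle wild-type androgen receptor expression in SC3 cells, a T-Rex 293 clone, grown in stripped-serum, phenol red-free medium. After 72 hours with compound, viable cells were quantified by CellTiter-Glo 2.0.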

[2] = test system: T-Rex 293 cell line SC3 cells lacking increased expression of androgen receptor protein; assay: Cellular growth inhibition, T-Rex 293 SC3 cells without doxycycline; conditions: not exposed to doxycycline, 72 hours, CellTiter-Glo 2.0
How it was run: as §1

[3] = test system: T47D cells; assay: Cellular growth inhibition assay for T47D cells; conditions: Homo sapiens, 72 hours, CellTiter-Glo 2.0
How it was run: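 Luminescence from CellTiter-Glo 2.0 after 72 h of compound exposure gives the viability signal. Cells grew in insulin-supplemented (0.2 units/mL) DMEM with 10% FBS and were treated one day after seeding at 0.5% DMSO. GI50 values come from four-parameter nonlinear regression.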

[4] = test system: VCaP cells; assay: Cellular growth inhibition assay for VCaP cells; conditions: Homo sapiens, 72 hours, CellTiter-Glo 2.0

| GI50 [3] | GI50 [4] | SMILES | GI50 [1] | GI50 [2] |
| --- | --- | --- | --- | --- |
| < 500 nM | < 100 nM | CCc1cnn2c(NCc3ccc(OCCOCCOCCOC4CCN(c5ncc(C(=O)N[C@H]6C(C)(C)[C@H](Oc7ccc(C#N)c(Cl)c7)C6(C)C)cn5)CC4)nc3)cc(N3CCCC[C@H]3CCO)nc12 [Compound I-8] | < 100 nM | 100 to 1000 nM |
|  | < 100 nM | CCc1cnn2c(NCc3ccc(OCCOCCOCCOCCOCCOC4CCN(c5ncc(C(=O)N[C@H]6C(C)(C)[C@H](Oc7ccc(C#N)c(Cl)c7)C6(C)C)cn5)CC4)nc3)cc(N3CCCC[C@H]3CCO)nc12 [Compound I-9] | < 100 nM | 100 to 1000 nM |
| < 500 nM | < 100 nM | CCc1cnn2c(NCc3ccc(OCCN4CCN(CC5CCN(c6ncc(C(=O)N[C@H]7C(C)(C)[C@H](Oc8ccc(C#N)c(Cl)c8)C7(C)C)cn6)CC5)CC4)nc3)cc(N3CCCC[C@H]3CCO)nc12 [Compound I-41] | < 100 nM | 100 to 1000 nM |
| < 500 nM | < 100 nM | CCc1cnn2c(NCc3ccc(COCCN4CCN(CC5CCN(c6ncc(C(=O)N[C@H]7C(C)(C)[C@H](Oc8ccc(C#N)c(Cl)c8)C7(C)C)cn6)CC5)CC4)nc3)cc(N3CCCC[C@H]3CCO)nc12 [Compound I-42] | < 100 nM | 100 to 1000 nM |
| < 500 nM | < 100 nM | CCc1cnn2c(NCc3ccc(OCCCCN4CCN(CC5CCN(c6ncc(C(=O)N[C@H]7C(C)(C)[C@H](Oc8ccc(C#N)c(Cl)c8)C7(C)C)cn6)CC5)CC4)nc3)cc(N3CCCC[C@H]3CCO)nc12 [Compound I-43] | < 100 nM | 100 to 1000 nM |
| < 500 nM |  | CCc1cnn2c(NCc3ccc(OCCOCCOCCOC4CCN(c5ccc(C(=O)N[C@H]6C(C)(C)[C@H](Oc7ccc(C#N)c(Cl)c7)C6(C)C)nn5)CC4)nc3)cc(N3CCCC[C@H]3CCO)nc12 [Compound I-44, N-((1r,3r)-3-(3-chloro-4-cyanophenoxy)-2,2,4,4-tetramethylcyclobutyl)-6-(4-(2-(2-(2-((5-(((3-ethyl-5-((S)-2-(2-hydroxyethyl)piperidin-1-yl)pyrazolo[1,5-a]pyrimidin-7-yl)amino)methyl)pyridin-2-yl)oxy)ethoxy)ethoxy)ethoxy)piperidin-1-yl)pyridazine-3-carboxamide] | 100 to 1000 nM | 100 to 1000 nM |

Continued, compound first:

| SMILES | GI50 [3] | GI50 [4] | GI50 [1] | GI50 [2] |
| --- | --- | --- | --- | --- |
| CCc1cnn2c(NCc3ccc(OCCN(C)c4ncc(C(=O)N[C@H]5C(C)(C)[C@H](Oc6ccc(C#N)c(Cl)c6)C5(C)C)cn4)nc3)cc(N3CCCC[C@H]3CCO)nc12 [Compound I-1] | 500 to 1500 nM |  | 100 to 1000 nM | 100 to 1000 nM |
| CCc1cnn2c(NCc3ccc(OCCOCCOCCOCCOCCN(C)c4ncc(C(=O)N[C@H]5C(C)(C)[C@H](Oc6ccc(C#N)c(Cl)c6)C5(C)C)cn4)nc3)cc(N3CCCC[C@H]3CCO)nc12 [Compound I-3] |  | < 100 nM | < 100 nM | 100 to 1000 nM |
| CCc1cnn2c(NCc3ccc(=O)n(CCOCCOCCOCCOCCOCCOCCN(C)c4ncc(C(=O)N[C@H]5C(C)(C)[C@H](Oc6ccc(C#N)c(Cl)c6)C5(C)C)cn4)c3)cc(N3CCCC[C@H]3CCO)nc12 [Compound I-4, N-((1r,3r)-3-(3-chloro-4-cyanophenoxy)-2,2,4,4-tetramethylcyclobutyl)-2-((20-(5-(((3-ethyl-5-((S)-2-(2-hydroxyethyl)piperidin-1-yl)pyrazolo[1,5-a]pyrimidin-7-yl)amino)methyl)-2-oxopyridin-1(2H)-yl)-3,6,9,12,15,18-hexaoxaicosyl)(methyl)amino)pyrimidine-5-carboxamide] |  |  | 100 to 1000 nM | 100 to 1000 nM |
| CCc1cnn2c(NCc3ccc(OCCOCCOCCOCCOCCOCCOCCN(C)c4ncc(C(=O)N[C@H]5C(C)(C)[C@H](Oc6ccc(C#N)c(Cl)c6)C5(C)C)cn4)nc3)cc(N3CCCC[C@H]3CCO)nc12 [Compound I-5] |  |  | 100 to 1000 nM | 1000 to 3500 nM |
| CCc1cnn2c(NCc3ccc(OCCOC4CCN(c5ncc(C(=O)N[C@H]6C(C)(C)[C@H](Oc7ccc(C#N)c(Cl)c7)C6(C)C)cn5)CC4)nc3)cc(N3CCCC[C@H]3CCO)nc12 [Compound I-7, N-((1r,3r)-3-(3-chloro-4-cyanophenoxy)-2,2,4,4-tetramethylcyclobutyl)-2-(4-(2-((5-(((3-ethyl-5-((S)-2-(2-hydroxyethyl)piperidin-1-yl)pyrazolo[1,5-a]pyrimidin-7-yl)amino)methyl)pyridin-2-yl)oxy)ethoxy)piperidin-1-yl)pyrimidine-5-carboxamide] | > 3000 nM | 1000 to 3500 nM | > 3500 nM | > 3500 nM |
| CC1(C)[C@H](NC(=O)c2cnc(N3CCC(OCCNS(=O)(=O)c4ccc(Nc5ncc(Br)c(Nc6cccc(F)c6C(N)=O)n5)cc4)CC3)nc2)C(C)(C)[C@H]1Oc1ccc(C#N)c(Cl)c1 [Compound I-13, 2-(4-(2-((4-((5-bromo-4-((2-carbamoyl-3-fluorophenyl)amino)pyrimidin-2-yl)amino)phenyl)sulfonamido)ethoxy)piperidin-1-yl)-N-((1 r,3r)-3-(3-chloro-4-cyanophenoxy)-2,2,4,4-tetramethylcyclobutyl)pyrimidine-5-carboxamide] | < 500 nM |  | > 3500 nM | > 3500 nM |
| CCc1cnn2c(NCc3ccc(OCCCCOCCOC4CCN(c5ncc(C(=O)N[C@H]6C(C)(C)[C@H](Oc7ccc(C#N)c(Cl)c7)C6(C)C)cn5)CC4)nc3)cc(N3CCCC[C@H]3CCO)nc12 [Compound I-34] |  | < 100 nM | < 100 nM | > 3500 nM |
| CCc1cnn2c(NCc3ccc(OCCOCC4CCN(CC5CCN(c6ncc(C(=O)N[C@H]7C(C)(C)[C@H](Oc8ccc(C#N)c(Cl)c8)C7(C)C)cn6)CC5)CC4)nc3)cc(N3CCCC[C@H]3CCO)nc12 [Compound I-45] |  | < 100 nM | < 100 nM | 100 to 1000 nM |
| CCc1cnn2c(NCc3ccc(OC4CCN(CC5CCN(c6ncc(C(=O)N[C@H]7C(C)(C)[C@H](Oc8ccc(C#N)c(Cl)c8)C7(C)C)cn6)CC5)CC4)nc3)cc(N3CCCC[C@H]3CCO)nc12 [Compound I-46] | < 500 nM | 100 to 1000 nM | < 100 nM | 100 to 1000 nM |
| CCc1cnn2c(NCc3ccc(OCCN4CCN(CC5CCN(c6ncc(C(=O)N[C@H]7C(C)(C)[C@H](Oc8ccc(C#N)c(Cl)c8)C7(C)C)cn6)CC5)CC4)nc3)cc(-c3ccccc3)nc12 [Compound I-47, N-((1r,3r)-3-(3-chloro-4-cyanophenoxy)-2,2,4,4-tetramethylcyclobutyl)-2-(4-((4-(2-((5-(((3-ethyl-5-phenylpyrazolo[1,5-a]pyrimidin-7-yl)amino)methyl)pyridin-2-yl)oxy)ethyl)piperazin-1-yl)methyl)piperidin-1-yl)pyrimidine-5-carboxamide] | > 3000 nM | > 3500 nM | 100 to 1000 nM | > 3500 nM |
| CCc1cnn2c(NCc3ccc(OCC4CCN(CC5CCN(c6ncc(C(=O)N[C@H]7C(C)(C)[C@H](Oc8ccc(C#N)c(Cl)c8)C7(C)C)cn6)CC5)CC4)nc3)cc(N3CCCC[C@H]3CCO)nc12 [Compound I-51] | < 500 nM | < 100 nM | < 100 nM | 100 to 1000 nM |
